Assay results as given in ChEMBL document CHEMBL6153088, “Discovery of 1,4-Disubstituted Cyclohexene Analogues as Selective GPR119 Agonists for the Treatment of Type 2 Diabetes” (J Med Chem, 2025).
≈ marks a conversion by molar mass, not a printed value. Each block holds one compound with its values, some of them ahead of it. Calls of active or inactive are those of the source. The calls are words filed in the database; no cut-off is given here.

Columns and labels:
[1] = target: T1, Glucose-dependent insulinotropic receptor (Homo sapiens, UniProt Q8TDV5); assay: Agonist activity at human GPR119 expressed in CHO cells assessed as cAMP level measured after 90 mins by HTRF based assay; format: functional, cell-based
T1 sequence (Q8TDV5 whole entry): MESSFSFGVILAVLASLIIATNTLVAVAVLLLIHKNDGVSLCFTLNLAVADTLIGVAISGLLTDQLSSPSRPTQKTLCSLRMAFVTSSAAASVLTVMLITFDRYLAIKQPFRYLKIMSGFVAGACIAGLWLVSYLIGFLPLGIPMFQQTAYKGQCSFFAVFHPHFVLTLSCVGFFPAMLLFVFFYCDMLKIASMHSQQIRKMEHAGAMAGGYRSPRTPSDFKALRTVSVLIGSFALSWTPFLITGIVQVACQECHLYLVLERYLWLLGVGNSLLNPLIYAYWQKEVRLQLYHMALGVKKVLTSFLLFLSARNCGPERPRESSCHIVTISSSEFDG

[2] = test system: Mus musculus; assay: (§1) Anti-diabetic activity in overnight fasted male C57BL/6J mouse assessed as reduction in blood glucose level by measuring reduction in AUC […] at 20 mg/kg pre-administered with compound for 30 min followed by glucose bolus addition and measured upto 120 min by oral glucose tolerance test relative to control; format: functional; set-up: scale not given: the % may be the effect or the level left; details: time <= 150 min, 2.5 h
[3] = Kinetic solubility of the compound in water; format: physicochemical; details: read-out: Kinetic_solubility
[4] = Induction of GLP-1 secretion in human NCI-H716 cells assessed as fold change at 30 uM measured after 1 hr by ELISA method; format: functional
[5] = target: Cytochrome P450 2C9 (Homo sapiens, UniProt P11712); assay: Inhibition of CYP2C9 in human liver microsomes using diclofenac as substrate incubated for 10 min in presence of NADPH by LC-MS/MS analysis; format: ADME, Microsome
[6] = test system: Rattus norvegicus; assay: Antidiabetic activity high-fat diet induced obese female Sprague-Dawley rat model assessed as reduction in fasting glucose levels at 3 to 30 mg/kg measured after 37 days by oral glucose tolerance test; format: functional, organism-based; details: dose 3-30 mg/kg, time 37.0 day
[7] = Half-life in Cynomolgus monkey at 30 mg/kg, po measured upto 48 hrs by LC-MS/MS analysis; format: ADME, organism-based, Macaca fascicularis; details: in vivo
[8] = test system: Rattus norvegicus; assay: Antidiabetic activity in high-fat diet induced obese female Sprague-Dawley rat model assessed as hypoglycemic effect at 3 to 30 mg/kg administered once daily for 5 weeks by oral glucose tolerance test; format: functional, organism-based; details: dose 3-30 mg/kg
[9] = Induction of GLP-1 secretion in human NCI-H716 cells assessed as fold change at 10 uM measured after 1 hr by ELISA method; format: functional
[10] = Oral bioavailability in Cynomolgus monkey at 30 mg/kg measured upto 48 hrs by LC-MS/MS analysis; format: ADME, organism-based, Macaca fascicularis; details: in vivo
[11] = Half-life in Beagle dog at 10 mg/kg, po measured upto 48 hrs by LC-MS/MS analysis; format: ADME, organism-based, Canis lupus familiaris; details: in vivo
[12] = Dissociation constant, pKa of compound; format: physicochemical
[13] = Microsomal stability in human liver microsome assessed as compound remaining measured upto 45 min in presence of NADPH by LC-MS analysis; format: ADME; details: liver microsomes, read-out: Stability
[14] = test system: Mus musculus; assay: Anti-diabetic activity in male FATZO mouse assessed as reduction in blood glucose level by measuring reduction in AUC […] at 30 mg/kg pre-administered with compound for 30 min followed by glucose bolus addition and measured upto 120 min by oral glucose tolerance test relative to control; format: functional; set-up: scale not given: the % may be the effect or the level left; details: time <= 150 min, 2.5 h
[15] = target: T2, Cytochrome P450 1A2 (Homo sapiens, UniProt P05177); assay: Inhibition of CYP1A2 in human liver microsomes using phenacetin as substrate incubated for 10 min in presence of NADPH by LC-MS/MS analysis; format: ADME, Microsome
T2 sequence (P05177 whole entry): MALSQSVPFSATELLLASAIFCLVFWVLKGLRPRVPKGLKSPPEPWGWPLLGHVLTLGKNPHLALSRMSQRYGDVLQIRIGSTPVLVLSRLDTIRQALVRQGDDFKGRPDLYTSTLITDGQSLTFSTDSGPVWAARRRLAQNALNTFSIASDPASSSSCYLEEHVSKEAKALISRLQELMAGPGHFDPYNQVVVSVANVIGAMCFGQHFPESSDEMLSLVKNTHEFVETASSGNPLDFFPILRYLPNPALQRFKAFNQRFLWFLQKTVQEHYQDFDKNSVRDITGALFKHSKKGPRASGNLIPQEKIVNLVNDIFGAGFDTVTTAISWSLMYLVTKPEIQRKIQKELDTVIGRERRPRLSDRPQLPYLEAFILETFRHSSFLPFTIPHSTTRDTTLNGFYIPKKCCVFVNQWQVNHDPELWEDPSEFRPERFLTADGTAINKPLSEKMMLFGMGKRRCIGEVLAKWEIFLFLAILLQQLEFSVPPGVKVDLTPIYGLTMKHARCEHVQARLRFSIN

[16] = test system: Rattus norvegicus; assay: Antidiabetic activity high-fat diet induced female Sprague-Dawley rat model assessed as reduction in body weight at 3 to 30 mg/kg measured after 28 days by oral glucose tolerance test; format: functional, organism-based; details: dose 3-30 mg/kg, time 28.0 day
[17] = Lipophilicity, logP of compound; format: physicochemical; details: octanol/water
[18] = Microsomal stability in rat liver microsome assessed as compound remaining measured upto 45 min in presence of NADPH by LC-MS analysis; format: ADME; details: liver microsomes, read-out: Stability
[19] = target: Voltage-gated inwardly rectifying potassium channel KCNH2 (Homo sapiens, UniProt Q12809); assay: Inhibition of human ERG incubated for 150 min by fluorescence polarization based microplate reader analysis; format: toxicity
[20] = target: Cytochrome P450 2C19 (Homo sapiens, UniProt P33261); assay: Inhibition of CYP2C19 in human liver microsomes using mephenytoin as substrate incubated for 45 min in presence of NADPH by LC-MS/MS analysis; format: ADME, Microsome
[21] = target: Cytochrome P450 2D6 (Homo sapiens, UniProt P10635); assay: Inhibition of CYP2D6 in human liver microsomes using dextromethorphan as substrate incubated for 20 min in presence of NADPH by LC-MS/MS analysis; format: ADME, Microsome
[22] = target: Cytochrome P450 3A4 (Homo sapiens, UniProt P08684); assay: Inhibition of CYP3A4 in human liver microsomes using midazolam as substrate incubated for 5 min in presence of NADPH by LC-MS/MS analysis; format: ADME, Microsome
[23] = Half-life in Sprague-Dawley rat at 30 mg/kg, po measured upto 48 hrs by LC-MS/MS analysis; format: ADME, organism-based; details: in vivo
[24] = Oral bioavailability in Sprague-Dawley rat at 30 mg/kg measured upto 48 hrs by LC-MS/MS analysis; format: ADME, organism-based; details: in vivo
[25] = test system: Mus musculus; assay: Anti-diabetic activity in male db/db mouse assessed as reduction in blood glucose level administered twice a day preincubated with compound for 30 min followed by glucose bolus addition and measured upto 120 min by oral glucose tolerance test; format: functional, organism-based; details: dose 30-30 mg/kg, time <= 150.0 min
[26] = Microsomal stability in dog liver microsome assessed as compound remaining measured upto 45 min in presence of NADPH by LC-MS analysis; format: ADME, Canis lupus familiaris; details: liver microsomes, read-out: Stability
[27] = test system: INS1; assay: Induction of insulin secretion in glucose treated INS1 cells at 0.1 to 1 uM measured after 1 hr by ELISA method; format: functional, cell-based; details: Rattus norvegicus, dose 0.1-1 µM
[28] = test system: Mus musculus; assay: as §1, with “at 10” for “at 20”, “mg/kg once a day” for “mg/kg”; format: functional; set-up: scale not given: the % may be the effect or the level left; details: time <= 150 min, 2.5 h
[29] = test system: Mus musculus; assay: as §1, with “at 30” for “at 20”; format: functional; set-up: scale not given: the % may be the effect or the level left; details: time <= 150 min, 2.5 h
[30] = test system: Mus musculus; assay: Anti-diabetic activity in male FATZO mouse assessed as reduction in blood glucose level by measuring AUC […] at 300 mg/kg once a day pre-administered with compound for 30 min followed by glucose bolus addition and measured upto 120 min by oral glucose tolerance test relative to control; format: functional; set-up: scale not given: the % may be the effect or the level left; details: time <= 150 min, 2.5 h
[31] = target: T1, Glucose-dependent insulinotropic receptor; assay: Agonist activity at human GPR119; format: functional

Cytochrome P450 3A4, sequence (P08684 whole entry): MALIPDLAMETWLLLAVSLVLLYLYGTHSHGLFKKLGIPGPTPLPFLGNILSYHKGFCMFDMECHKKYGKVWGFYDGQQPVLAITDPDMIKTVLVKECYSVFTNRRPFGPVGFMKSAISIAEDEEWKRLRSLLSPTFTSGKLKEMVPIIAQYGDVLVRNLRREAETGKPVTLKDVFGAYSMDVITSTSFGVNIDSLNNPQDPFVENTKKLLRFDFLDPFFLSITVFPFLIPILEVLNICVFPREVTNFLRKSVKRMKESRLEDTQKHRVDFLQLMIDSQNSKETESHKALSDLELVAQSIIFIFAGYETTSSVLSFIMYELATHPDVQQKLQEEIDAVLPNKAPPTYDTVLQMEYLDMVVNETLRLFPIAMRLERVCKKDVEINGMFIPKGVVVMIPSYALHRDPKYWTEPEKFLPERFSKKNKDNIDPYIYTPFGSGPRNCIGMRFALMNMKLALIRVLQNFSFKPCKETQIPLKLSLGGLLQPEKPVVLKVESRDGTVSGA
Voltage-gated inwardly rectifying potassium channel KCNH2, sequence (Q12809 whole entry): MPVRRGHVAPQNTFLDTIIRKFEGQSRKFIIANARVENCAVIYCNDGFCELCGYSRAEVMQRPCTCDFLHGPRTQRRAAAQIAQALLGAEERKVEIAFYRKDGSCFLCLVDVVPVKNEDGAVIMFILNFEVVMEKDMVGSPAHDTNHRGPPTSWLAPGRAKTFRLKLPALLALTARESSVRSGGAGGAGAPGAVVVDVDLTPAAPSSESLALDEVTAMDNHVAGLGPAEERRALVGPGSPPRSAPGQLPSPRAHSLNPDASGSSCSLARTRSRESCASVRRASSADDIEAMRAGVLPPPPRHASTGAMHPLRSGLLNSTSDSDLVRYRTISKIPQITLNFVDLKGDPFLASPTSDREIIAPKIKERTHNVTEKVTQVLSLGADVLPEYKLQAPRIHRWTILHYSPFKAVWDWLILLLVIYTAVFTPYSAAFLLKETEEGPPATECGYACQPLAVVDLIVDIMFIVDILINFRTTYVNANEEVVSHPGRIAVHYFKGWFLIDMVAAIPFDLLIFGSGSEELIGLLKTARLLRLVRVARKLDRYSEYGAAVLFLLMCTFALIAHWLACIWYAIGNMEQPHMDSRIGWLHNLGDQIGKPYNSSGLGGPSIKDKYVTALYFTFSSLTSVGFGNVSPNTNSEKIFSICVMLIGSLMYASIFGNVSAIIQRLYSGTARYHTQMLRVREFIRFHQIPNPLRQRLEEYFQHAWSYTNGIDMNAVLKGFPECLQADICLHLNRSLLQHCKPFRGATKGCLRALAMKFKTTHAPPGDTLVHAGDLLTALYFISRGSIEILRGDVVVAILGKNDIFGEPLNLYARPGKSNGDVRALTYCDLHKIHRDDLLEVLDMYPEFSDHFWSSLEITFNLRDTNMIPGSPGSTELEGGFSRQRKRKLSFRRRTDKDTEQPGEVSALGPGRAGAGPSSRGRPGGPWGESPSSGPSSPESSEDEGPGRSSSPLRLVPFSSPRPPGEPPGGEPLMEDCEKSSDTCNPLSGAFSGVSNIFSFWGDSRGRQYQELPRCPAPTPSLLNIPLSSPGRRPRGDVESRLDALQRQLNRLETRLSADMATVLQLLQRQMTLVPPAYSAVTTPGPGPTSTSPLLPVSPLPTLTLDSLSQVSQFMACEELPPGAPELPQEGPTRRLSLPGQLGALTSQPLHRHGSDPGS
Cytochrome P450 2C9, sequence (P11712 whole entry): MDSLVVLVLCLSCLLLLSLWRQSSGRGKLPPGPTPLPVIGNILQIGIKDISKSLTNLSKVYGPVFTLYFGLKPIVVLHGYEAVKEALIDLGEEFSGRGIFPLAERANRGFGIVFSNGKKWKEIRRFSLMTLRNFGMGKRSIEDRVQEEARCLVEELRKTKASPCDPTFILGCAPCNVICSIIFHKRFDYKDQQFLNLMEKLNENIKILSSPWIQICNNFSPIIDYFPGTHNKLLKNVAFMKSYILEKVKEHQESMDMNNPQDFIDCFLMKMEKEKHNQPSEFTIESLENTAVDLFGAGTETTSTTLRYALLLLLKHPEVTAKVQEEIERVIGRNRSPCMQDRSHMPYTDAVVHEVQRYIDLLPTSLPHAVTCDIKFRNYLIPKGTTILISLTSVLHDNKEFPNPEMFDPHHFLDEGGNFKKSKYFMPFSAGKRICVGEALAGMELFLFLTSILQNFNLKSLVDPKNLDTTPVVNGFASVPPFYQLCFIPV
Cytochrome P450 2C19, sequence (P33261 whole entry): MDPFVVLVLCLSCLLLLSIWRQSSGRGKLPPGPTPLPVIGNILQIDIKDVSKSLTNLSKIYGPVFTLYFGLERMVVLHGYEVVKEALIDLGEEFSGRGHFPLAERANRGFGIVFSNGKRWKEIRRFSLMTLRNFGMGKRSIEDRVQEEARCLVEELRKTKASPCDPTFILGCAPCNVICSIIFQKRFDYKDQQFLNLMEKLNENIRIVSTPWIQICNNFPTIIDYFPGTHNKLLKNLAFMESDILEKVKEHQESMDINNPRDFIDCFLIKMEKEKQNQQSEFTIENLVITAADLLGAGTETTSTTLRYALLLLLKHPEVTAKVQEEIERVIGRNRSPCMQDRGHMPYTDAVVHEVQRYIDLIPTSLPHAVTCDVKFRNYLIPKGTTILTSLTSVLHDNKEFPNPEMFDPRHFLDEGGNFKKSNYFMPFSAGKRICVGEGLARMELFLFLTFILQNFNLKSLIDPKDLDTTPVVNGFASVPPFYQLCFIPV
Cytochrome P450 2D6, sequence (P10635 whole entry): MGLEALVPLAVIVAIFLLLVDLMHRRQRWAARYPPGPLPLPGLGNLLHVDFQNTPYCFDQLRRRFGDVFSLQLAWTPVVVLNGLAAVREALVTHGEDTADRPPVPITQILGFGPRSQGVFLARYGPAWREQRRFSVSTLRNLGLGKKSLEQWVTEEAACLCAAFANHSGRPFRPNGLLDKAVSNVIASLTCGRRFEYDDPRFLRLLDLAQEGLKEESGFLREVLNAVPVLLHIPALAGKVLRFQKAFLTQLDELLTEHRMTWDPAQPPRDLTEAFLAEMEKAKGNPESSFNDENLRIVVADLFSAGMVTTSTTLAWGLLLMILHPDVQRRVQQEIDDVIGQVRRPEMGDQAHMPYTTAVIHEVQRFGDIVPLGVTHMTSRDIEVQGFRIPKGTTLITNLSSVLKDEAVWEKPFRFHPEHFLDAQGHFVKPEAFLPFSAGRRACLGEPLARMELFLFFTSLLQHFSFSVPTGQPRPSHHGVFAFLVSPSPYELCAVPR

SMILES: CCc1cnc(N2CCC(COc3ccc(C4=CCC(C(=O)N5CCC(F)(F)C5)CC4)cc3)CC2)nc1 (stereo not given)
- EC50 [1]: 0.01 µM
- Activity [2]: 12.6%

SMILES: CCc1cnc(N2CCC(COc3ccc(C4=CCC(C(=O)N5CCCC5)CC4)cc3)CC2)nc1 (stereo not given)
- EC50 [1]: 0.027 µM
- Activity [2]: 15.9%

SMILES: CCc1cnc(N2CCC(COc3ccc(C4=CC[C@H](C(=O)N5CCC[C@@H]5CO)CC4)cc3)CC2)nc1
- solubility kinetic [3]: 176 µM (≈ 88.8 µg/mL)
- fold change (FC) [4]: 1.8
- IC50 [5]: > 10 µM
- EC50 [1]: 0.0038 µM
- Activity [6]: Active
- half-life [7]: 11.7 h
- Activity [8]: Active; Strong Glucose Tolerant Ability
- fold change (FC) [9]: 1.7
- bioavailability [10]: 31.6%
- half-life [11]: 17.2 h
- pKa [12]: 2.49
- remaining at 0.75 h [13]: 53.8%
- Activity [14]: 22.9%
- IC50 [15]: > 10 µM
- Activity [16]: Active; Significant Reduction In Body Weight
- logP [17]: 3.45
- remaining at 0.75 h [18]: 48.3%
- IC50 [19]: > 100 µM
- IC50 [20]: > 10 µM
- IC50 [21]: > 10 µM
- IC50 [22]: > 10 µM
- half-life [23]: 5.4 h
- bioavailability [24]: 28.3%
- Activity [25]: Dose-dependent-effect; Superior Compared To Sitagliptin
- remaining at 0.75 h [26]: 62.4%
- Activity [27]: Active

SMILES: CCc1cnc(N2CCC(COc3ccc(C4=CCC(C(=O)N5CC[C@H](O)C5)CC4)cc3)CC2)nc1 (stereo not given in full)
- EC50 [1]: 0.026 µM
- Activity [2]: 7.2%

SMILES: CCc1cnc(N2CCC(COc3ccc(C4=CCC(C(=O)N5CC(O)C5)CC4)cc3)CC2)nc1 (stereo not given)
- EC50 [1]: 0.07 µM
- Activity [2]: 12.3%

SMILES: N[C@@H](CC(=O)N1CCn2c(nnc2C(F)(F)F)C1)Cc1cc(F)c(F)cc1F [SITAGLIPTIN]
- Activity [28]: 20.5%
- Activity [14]: 17.5%
- Activity [29]: 22%

SMILES: CCc1cnc(N2CCC(COc3ccc(C4=CCC(C(=O)N5CCC(=O)C5)CC4)cc3)CC2)nc1 (stereo not given)
- EC50 [1]: 0.012 µM
- Activity [2]: 12.7%

SMILES: CCc1cnc(N2CCC(COc3ccc(C4=CCC(C(=O)N5CCOCC5)CC4)cc3)CC2)nc1 (stereo not given)
- EC50 [1]: 0.013 µM
- Activity [2]: 15.7%

SMILES: CN(C)C(=N)NC(=N)N [METFORMIN]
- Activity [30]: 25%

Now from value to compound, other results behind:

- EC50 [1]: 0.013 µM
SMILES: CCc1cnc(N2CCC(COc3ccc(C4=CCC(C(=O)N5CC[C@@H](O)C5)CC4)cc3)CC2)nc1 (stereo not given in full)
- Activity [2]: 13.5%

- EC50 [1]: 0.032 µM
SMILES: CCc1cnc(N2CCC(COc3ccc(C4=CC[C@@H](C(=O)N5CCC[C@@H]5CO)CC4)cc3)CC2)nc1

- EC50 [1]: 0.013 µM
SMILES: CC(C)(C)OC(=O)N1CCC(COc2ccc(C3=CCC(C(=O)N4CCOCC4)CC3)cc2)CC1 (stereo not given)
- Activity [2]: 10.2%

- EC50 [1]: 0.031 µM
SMILES: CCc1cnc(N2CCC(COc3ccc(C4=CCC(C(=O)N5CCC[C@H]5CO)CC4)cc3)CC2)nc1 (stereo not given in full)
- Activity [2]: 9.8%

- EC50 [31]: 0.014 µM
SMILES: CCc1cnc(N2CCC(CCCOc3cc(F)c(-c4noc(C(C)C)n4)c(F)c3)CC2)nc1
